# According to publication PMC5394417, “Investigating the molecular mechanism of positive and negative allosteric modulators in the calcium-sensing receptor dimer” (Scientific Reports, 2017):
# Target: T1, HA-F688A CaSR mutant (Rattus norvegicus, UniProt P48442, F688A)
# T1 construct: mGluR5 signal peptide (N); expressed in transfected cells; host or cells: HEK293T
# T1 sequence (P48442 20-1079 F688A): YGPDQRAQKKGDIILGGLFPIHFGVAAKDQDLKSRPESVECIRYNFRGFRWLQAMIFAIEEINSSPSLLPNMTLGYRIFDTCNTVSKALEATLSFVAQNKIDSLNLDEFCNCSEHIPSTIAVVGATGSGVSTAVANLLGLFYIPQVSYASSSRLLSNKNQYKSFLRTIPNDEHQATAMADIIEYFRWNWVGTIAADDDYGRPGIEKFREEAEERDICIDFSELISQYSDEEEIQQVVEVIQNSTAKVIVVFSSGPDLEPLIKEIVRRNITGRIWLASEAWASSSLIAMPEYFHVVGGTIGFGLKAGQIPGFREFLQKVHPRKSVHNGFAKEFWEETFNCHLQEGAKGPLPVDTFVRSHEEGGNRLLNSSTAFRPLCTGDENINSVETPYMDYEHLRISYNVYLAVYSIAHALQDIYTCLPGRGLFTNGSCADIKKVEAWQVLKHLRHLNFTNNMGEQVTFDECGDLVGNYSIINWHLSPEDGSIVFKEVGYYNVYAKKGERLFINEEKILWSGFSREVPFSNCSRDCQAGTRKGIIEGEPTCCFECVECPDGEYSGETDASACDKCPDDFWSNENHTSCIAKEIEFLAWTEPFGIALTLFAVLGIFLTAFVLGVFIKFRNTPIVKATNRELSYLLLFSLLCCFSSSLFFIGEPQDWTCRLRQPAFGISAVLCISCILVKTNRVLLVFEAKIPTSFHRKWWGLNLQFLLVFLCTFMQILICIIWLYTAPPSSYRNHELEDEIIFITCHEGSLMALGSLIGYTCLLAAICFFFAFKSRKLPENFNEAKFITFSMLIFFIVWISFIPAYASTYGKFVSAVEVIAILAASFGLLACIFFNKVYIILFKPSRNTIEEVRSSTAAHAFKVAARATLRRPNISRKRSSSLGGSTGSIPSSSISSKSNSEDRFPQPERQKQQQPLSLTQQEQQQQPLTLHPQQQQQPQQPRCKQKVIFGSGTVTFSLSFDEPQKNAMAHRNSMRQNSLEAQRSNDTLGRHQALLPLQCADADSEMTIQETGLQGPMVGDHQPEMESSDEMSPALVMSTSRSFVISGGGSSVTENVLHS
# Assay: IP-One assay, HEK293T transiently transfected
# Format: cell-based
structure (smiles),measurement,setting,value
[Ca+2] [Ca^2+],EC50,Ca^2+ alone,6.11 mM
same,pEC50 ± S.E.M.,Ca^2+ alone,2.21 ± 0.01
same,Max ± S.E.M.,"Ca^2+ alone, normalized to maximum response of WT CaSR",86 ± 3.1%
same,EC50,Ca^2+ with 1 μM NPS R-568,2.86 mM
same,pEC50 ± S.E.M.,Ca^2+ with 1 μM NPS R-568,2.54 ± 0.02
same,Max ± S.E.M.,"Ca^2+ with 1 μM NPS R-568, normalized to maximum response with Ca^2+ alone for the construct",110 ± 9%
same,EC50,Ca^2+ with 5 μM NPS 2143,8.31 mM
same,pEC50 ± S.E.M.,Ca^2+ with 5 μM NPS 2143,2.08 ± 0.01
same,Max ± S.E.M.,"Ca^2+ with 5 μM NPS 2143, normalized to maximum response with Ca^2+ alone for the construct",79 ± 6.9%
